In patent publication EP0057998B1, “Alicyclic compounds, their production and use” (Takeda Chemical Industries, Ltd., priority 1981, dated 1982):
Where a name gives a salt, the structure may show the parent alone.

Experiments:
[1] = system: Hypertensive Reaction by Angiotensin I; assay: Effect against hypertensive activity of angiotensin I in rats after oral administration; assay type: in vivo, Male rats (Sprague-Dawley); conditions: 13.8 µM/kg orally, angiotensin I 300 ng/kg i.v., corrected by angiotensin II reaction; for Percent Inhibition (%) against Hypertensive Reaction by Angiotensin I After 20 min.: 20 min after administration; for Percent Inhibition (%) against Hypertensive Reaction by Angiotensin I After 60 min.: 60 min after administration; for Percent Inhibition (%) against Hypertensive Reaction by Angiotensin I After 120 min.: 120 min after administration
Experimental: Effect of Present Compounds against Hypertensive Activity of Angiotensin I. Male rats (Sprague-Dawley) weighing 250 g to 350 g which were fed under free access to drinking water and feeds were used as experimental animals. The rats were anesthetized with intraperitoneal administration of pentobarbital sodium (50 mg/kg) on the day before the test day and a polyethylene tube was inserted into each of the femoral artery for measurement of blood pressure and the femoral vein for injection of angiotensin I and II, and then the tubes were fixed. […] Then, 13.8 µM/kg of the compound of this invention was administered orally as an aqueous solution or an aqueous gum arabic suspension, and 20, 60 and 120 minutes after the administration, angiotensin I and II were injected repeatedly to trace hypertensive reactions. In calculating the percent inhibition to the hypertensive activity of angiotensin I, the percent inhibitory value was corrected based on the variation with time in the hypertensive reaction by angiotensin II.

[2] = target: Angiotensin I Converting Enzyme (ACE) (Homo sapiens, UniProt P12821); assay: Inhibition of Angiotensin I Converting Enzyme (ACE), HHL substrate, hippuric acid colorimetry (modified Cushman method); assay type: biochemical; conditions: 37°C for one hour, pH 8.3, read-out: Inhibitory Activity on ACE (%); for inhibition at 1 µM: Concentration 1 μM; for inhibition at 10 µM: Concentration 10 μM
Sequence of Angiotensin I Converting Enzyme (ACE) (P12821 30-1306, species assumed): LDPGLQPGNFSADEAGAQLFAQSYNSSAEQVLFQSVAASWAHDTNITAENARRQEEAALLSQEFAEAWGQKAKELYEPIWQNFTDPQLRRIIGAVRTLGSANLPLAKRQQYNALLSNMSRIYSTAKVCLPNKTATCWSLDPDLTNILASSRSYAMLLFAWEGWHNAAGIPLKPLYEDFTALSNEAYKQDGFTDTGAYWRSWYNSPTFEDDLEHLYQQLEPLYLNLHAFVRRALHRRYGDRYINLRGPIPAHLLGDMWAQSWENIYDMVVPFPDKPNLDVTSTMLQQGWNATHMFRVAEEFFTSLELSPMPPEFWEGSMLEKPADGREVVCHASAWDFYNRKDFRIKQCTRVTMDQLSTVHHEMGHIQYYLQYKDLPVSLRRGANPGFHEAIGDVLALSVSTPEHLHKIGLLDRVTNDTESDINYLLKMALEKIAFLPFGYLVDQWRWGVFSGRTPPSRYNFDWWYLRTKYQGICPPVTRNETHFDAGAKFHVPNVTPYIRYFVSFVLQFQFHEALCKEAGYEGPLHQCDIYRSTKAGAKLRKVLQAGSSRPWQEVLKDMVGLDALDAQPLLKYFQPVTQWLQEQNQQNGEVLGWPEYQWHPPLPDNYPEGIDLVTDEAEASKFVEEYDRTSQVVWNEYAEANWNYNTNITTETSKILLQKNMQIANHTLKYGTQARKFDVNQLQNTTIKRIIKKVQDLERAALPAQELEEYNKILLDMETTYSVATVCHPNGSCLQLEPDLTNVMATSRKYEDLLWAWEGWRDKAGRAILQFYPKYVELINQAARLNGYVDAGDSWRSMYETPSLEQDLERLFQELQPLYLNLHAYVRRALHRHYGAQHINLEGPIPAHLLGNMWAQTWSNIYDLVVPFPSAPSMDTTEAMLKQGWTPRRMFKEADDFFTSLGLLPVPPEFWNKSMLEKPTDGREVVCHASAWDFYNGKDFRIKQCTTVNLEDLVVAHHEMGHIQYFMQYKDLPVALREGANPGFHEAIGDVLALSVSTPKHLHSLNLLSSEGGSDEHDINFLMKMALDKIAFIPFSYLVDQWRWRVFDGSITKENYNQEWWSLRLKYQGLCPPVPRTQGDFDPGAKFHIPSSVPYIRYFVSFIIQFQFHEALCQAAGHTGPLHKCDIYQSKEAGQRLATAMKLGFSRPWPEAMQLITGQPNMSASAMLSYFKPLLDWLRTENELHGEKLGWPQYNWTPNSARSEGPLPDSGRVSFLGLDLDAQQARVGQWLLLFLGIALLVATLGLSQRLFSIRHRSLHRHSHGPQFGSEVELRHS
Experimental: Inhibitions of Angiotensin I Converting Enzyme (ACE) by the Compounds of this Invention. The experiment was conducted in accordance with a modification of the method described by Cushman et al. [Biochemical Pharmacology, Vol. 20, 1637 (1971)]. That is, using hippuryl-L-histidyl-L-leucine (HHL) as the substrate, the ACE inhibitory activity was determined in terms of percent inhibition of the amount of hippuric acid produced by ACE when the present compound was added. A solution of the compound of the present invention dissolved in a 0.02 to 0.5% dimethyl sulfoxide-1 00 mM potassium phosphate buffer solution (pH 8.3, containing 300 mM sodium chloride) was added to 100 µl of ACE (protein concentration, 20 mg/ml) and 100 µl of -1.25 mM HHL. In this experiment, a potassium phosphate buffer solution containing dimethyl sulfoxide at a concentration equal to that of the test solution was used as a control. After incubating the solution at 37°C for one hour, 150 µl of 1 N hydrochloric acid was added to the solution to terminate the reaction. After 1 ml of ethyl acetate was added, the solution was centrifuged at 3000 r.p.m. for 10 minutes. A 0.5 ml aliquot was separated from the ethyl acetate layer and dried at a temperature below 50°C under nitrogen gas streams. The residue was mixed with 5 ml of 1 M aqueous sodium chloride and the mixture was subjected to colorimetry at a wavelength of 228 nm.

inhibition at 1 µM [2] [%]	inhibition at 10 µM [2] [%]	SMILES	Percent Inhibition (%) against Hypertensive Reaction by Angiotensin I After 20 min. [1] [%]	Percent Inhibition (%) against Hypertensive Reaction by Angiotensin I After 60 min. [1] [%]	Percent Inhibition (%) against Hypertensive Reaction by Angiotensin I After 120 min. [1] [%]
84	96	CCOC(=O)C(CCc1ccccc1)N[C@@H](C)C(=O)N(CC(=O)O)C1CCCC1.Cl (stereo partly drawn) [Example 1, N-(1-ethoxycarbonyl-3-phenylpropyl)-L-alanyl-N-cyclopentylglycine hydrochloride]	92	82	82
64	90	CCOC(=O)C(CCc1ccccc1)N[C@@H](C)C(=O)N(CC(=O)O)C1CCCCC1.Cl (stereo partly drawn) [Example 2, N-(1-ethoxycarbonyl-3-phenylpropyl)-L-alanyl-N-cyclohexylglycine hydrochloride]	82	82	77
93	100	C[C@H](NC(CCc1ccccc1)C(=O)O)C(=O)N(CC(=O)O)C1CCCC1 (stereo partly drawn) [Example 13, N-(1-carboxy-3-phenylpropyl)-L-alanyl-N-cyclopentylglycine]	58	64	62

Further lines, the compound ahead of its results:

SMILES	inhibition at 1 µM [2] [%]	inhibition at 10 µM [2] [%]	Percent Inhibition (%) against Hypertensive Reaction by Angiotensin I After 20 min. [1] [%]	Percent Inhibition (%) against Hypertensive Reaction by Angiotensin I After 60 min. [1] [%]	Percent Inhibition (%) against Hypertensive Reaction by Angiotensin I After 120 min. [1] [%]
CCCCOC(=O)C(CCc1ccccc1)N[C@@H](C)C(=O)N(CC(=O)O)C1CCCCCC1 (stereo partly drawn) [Example 7, N-(1-butoxycarbonyl-3-phenylpropyl)-L-alanyl-N-cycloheptylglycine hydrochloride]	88	98	–	–	–
CCCCOC(=O)[C@H](CCc1ccccc1)N[C@@H](C)C(=O)N(CC(=O)O)C1CCCC1.Cl [Example 12, N-[1-(S)-butoxycarbonyl-3-phenylpropyl]-L-alanyl-N-cyclopentylglycine hydrochloride]	–	–	95	85	76
CCOC(=O)C(CCc1ccccc1)NC(C)C(=O)N(CC(=O)O)C1CC2CCC1C2 [Example 17, N-[1-(2)-ethoxycarbonyl-3-phenylpropyl]-L-alanyl-N-(2-exonorbornyl)glycine hydrobromide]	78	99	–	–	–
CCOC(=O)C(CCc1ccccc1)N[C@@H](C)C(=O)N(CC(=O)O)C1C2CC3CC(C2)CC1C3 (stereo partly drawn) [Example 19, N-(1-ethoxycarbonyl-3-phenylpropyl)-L-alanyl-N-(2-adamantyl)glycine hydrobromide]	73	93	–	–	–
